Reference: patent US20140173774A1, “SOYBEAN TRAN[…] EFFICIENT AND HIGH-[…] PRODUCTION” (Dow AgroSciences LLC, priority 2012, published 2014)

Experiments:
[1] = test system: un-transformed soybean explants; assay: Glyphosate dose response study on un-transformed soybean explants in tissue culture; details: for Number of Explants at Various Stages of Selection: End of SE-2 / Number of Explants at Various Stages of Selection: SE-1 / Number of Explants at Various Stages of Selection: SE-2 / Number of Explants at Various Stages of Selection: SI-2: 49 explants at CC
Description: Initially, a dose response study was completed. To test the effect of glyphosate on the explants, glyphosate was added to media used from the shoot initiation stage and onwards. Glyphosate was tested from the range of 0.025-0.2 mM. Incorporation of glyphosate in tissue culture media within this concentration range has been reported in soybean (Clemente et al, 2000; Hinchee et al, 1996; Martinell et al, 2006; Martinell et al, 1999; Martinell et al, 2002), tobacco (Singer et al, 1985), cotton (Zhao et al, 2006) and wheat (Hu et al, 2003). Five concentrations of glyphosate were tested for culturing of un-transformed soybean explants. The concentrations incorporated into the SI-2 media were 0.025 mM, 0.05 mM, 0.075 mM, 0.1 mM and 0.2 mM. The un-transformed soybean explants were maintained on the same rate of glyphosate selection for all the successive stages of subculture from SI-2 media to the completion of the tissue culturing protocol. The numbers of healthy explants were counted at each subculture stage. Dead explants were discarded and healthy explants were subcultured further onto appropriate media.
Growth of the explants was also retarded on glyphosate containing media. Next, the cotyledons were removed and the explants were subcultured from SI-2 to SE media. At the end of another two weeks of selection on SE media, significant differences in the growth of the explants were observed when the explants were exposed to different levels of glyphosate. The retarded growth of the explants was proportionate to the increasing dose of glyphosate. Similarly the number of dead explants was also proportional to the increasing dose of glyphosate. The number of dead explants increased as the dose of glyphosate was increased. […] Subsequently, three different concentrations of glyphosate (e.g., 0.025 mM, 0.05 mM and 0.1 mM) were incorporated into the selection schemes for Agrobacterium-mediated transformation of the soybean split-seed explants comprising a portion of an embryonic axis.

soybean explants = assay: Glyphosate selection of split-seed explants transformed with pDAB107553; parameters: species or system Glycine max cv. Maverick
Description: The novel Agrobacterium-mediated soybean split-seed comprising a portion of an embryonic axis transformation method described in Example 2 was used to transform mature soybean (Glycine max) cv. Maverick seeds with an Agrobacterium strain harboring pDAB 107553. Three different concentrations of glyphosate (e.g., 0.025 mM, 0.05 mM and 0.1 mM) were incorporated into the selection schemes for the soybean split-seed comprising a portion of an embryonic axis transformation method.
As the transformation experiment progressed through various subculture stages, the health of the soybean explants deteriorated. […] The intensity of cotyledon yellowing was more prominent in soybean explants cultured on greater rates of glyphosate (FIG. 9).
The surface of the explants was turning soft and creamy in consistency. The softening effect was very pronounced at the end of SE-1 stage onwards.

In the case of `O=C(O)CNCP(=O)(O)O` [glyphosate], the “Number of Explants at Various Stages of Selection: End of SE-2” value (“Number … of Selection: End of SE-2” for short) ([1]; 0.025 mM glyphosate) was 0, the “Number of Explants at Various Stages of Selection: SE-1” value (“Number … of Selection: SE-1” for short) ([1]; 0.025 mM glyphosate) was 41 and the “Number of Explants at Various Stages of Selection: SE-2” value (from here on “Number … of Selection: SE-2”) ([1]; 0.025 mM glyphosate) was 38. The “Number of Explants at Various Stages of Selection: SI-2” value (from here on “Number … of Selection: SI-2”) ([1]; 0.025 mM glyphosate) was 43, the “Number … of Selection: End of SE-2” value ([1]; 0.05 mM glyphosate) was 0 and the “Number … of Selection: SE-1” value ([1]; 0.05 mM glyphosate) was 45. The “Number … of Selection: SE-2” value ([1]; 0.05 mM glyphosate) was 38, the “Number … of Selection: SI-2” value ([1]; 0.05 mM glyphosate) was 45 and the “Number … of Selection: End of SE-2” value ([1]; 0.075 mM glyphosate) was 0. The “Number … of Selection: SE-1” value ([1]; 0.075 mM glyphosate) was 45, the “Number … of Selection: SE-2” value ([1]; 0.075 mM glyphosate) was 21 and the “Number … of Selection: SI-2” value ([1]; 0.075 mM glyphosate) was 47. The “Number … of Selection: End of SE-2” value ([1]; 0.1 mM glyphosate) was 0, the “Number … of Selection: SE-1” value ([1]; 0.1 mM glyphosate) was 41 and the “Number … of Selection: SE-2” value ([1]; 0.1 mM glyphosate) was 13. The “Number … of Selection: SI-2” value ([1]; 0.1 mM glyphosate) was 44, the “Number … of Selection: End of SE-2” value ([1]; 0.2 mM glyphosate) was 0 and the “Number … of Selection: SE-1” value ([1]; 0.2 mM glyphosate) was 31. The “Number … of Selection: SE-2” value ([1]; 0.2 mM glyphosate) was 1, the “Number … of Selection: SI-2” value ([1]; 0.2 mM glyphosate) was 42 and the “explant survival at the end of SE-2” value ([1]; all levels of glyphosate tested, after six weeks on selection) was “all of the explants were dead”. For the same molecule, the “extent of yellowness of the cotyledons” value ([1]; end of culturing on SI-2 media, about 2 weeks) was “directly proportional to the dose of glyphosate”, the “growth of the explants” value ([1]; glyphosate containing SI-2 media) was “retarded” and the “explants survived at the end of SE-1” value ([1]; highest dose, 0.2 mM) was “one”. The “explant survival after 6 weeks of glyphosate selection” value ([1]; lowest dose tested, 0.025 mM) was “none of the soybean explants were able to survive”, the “yellowing of the cotyledons” value (soybean explants; after first selection cycle, two weeks on SI-2 media) was “yellowing of the cotyledons was noted” and the “adverse physiological effects on explants” value (soybean explants; highest level, 0.1 mM, of 0.025, 0.05 and 0.1 mM) was “greatest adverse physiological effects”. For the same molecule, the “softening of explant tissue” value (soybean explants; media containing glyphosate, pronounced from end of SE-1) was “softening on the surfaces of the plant tissues”.
